PubChem BioAssay (NCI)
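Following 48 hours of exposure in 96-well plates, responses at five concentrations were used to interpolate endpoints linearly. The concentration for 50% growth inhibition is given as GI50. TGI: concentration producing complete growth inhibition.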

Key:
Assay in all cases: inhibition of tumour cell growth, NCI panel, 48 h
SNB-19 CNS = system: SNB-19 CNS
MDA-MB-231 breast = system: MDA-MB-231 breast
MOLT-4 leukemia = system: MOLT-4 leukemia
SF-539 CNS = system: SF-539 CNS
IGROV1 ovarian = system: IGROV1 ovarian
NCI-H522 lung = system: NCI-H522 lung
NCI/ADR-RES ovarian = system: NCI/ADR-RES ovarian
RPMI-8226 leukemia = system: RPMI-8226 leukemia
UO-31 renal = system: UO-31 renal
SW-620 colon = system: SW-620 colon
HL-60(TB) leukemia = system: HL-60(TB) leukemia
NCI-H226 lung = system: NCI-H226 lung
EKVX NSCLC = system: EKVX NSCLC
COLO 205 colon = system: COLO 205 colon
HCT-15 colon = system: HCT-15 colon
MALME-3M melanoma = system: MALME-3M melanoma
SF-268 CNS = system: SF-268 CNS
HOP-92 NSCLC = system: HOP-92 NSCLC
SR leukemia = system: SR leukemia
UACC-62 melanoma = system: UACC-62 melanoma
KM12 colon = system: KM12 colon
MCF7 breast = system: MCF7 breast
ACHN renal = system: ACHN renal
TK-10 renal = system: TK-10 renal
K-562 leukemia = system: K-562 leukemia
A498 renal = system: A498 renal
DU-145 prostate = system: DU-145 prostate
HOP-62 NSCLC = system: HOP-62 NSCLC
A549 NSCLC = system: A549 NSCLC
OVCAR-4 ovarian = system: OVCAR-4 ovarian
OVCAR-8 ovarian = system: OVCAR-8 ovarian
SK-MEL-28 melanoma = system: SK-MEL-28 melanoma
786-0 renal = system: 786-0 renal
SK-MEL-5 melanoma = system: SK-MEL-5 melanoma
UACC-257 melanoma = system: UACC-257 melanoma
CAKI-1 renal = system: CAKI-1 renal
SF-295 CNS = system: SF-295 CNS
SK-OV-3 ovarian = system: SK-OV-3 ovarian
T-47D breast = system: T-47D breast
M14 melanoma = system: M14 melanoma
OVCAR-3 ovarian = system: OVCAR-3 ovarian
OVCAR-5 ovarian = system: OVCAR-5 ovarian
SK-MEL-2 melanoma = system: SK-MEL-2 melanoma
U251 CNS = system: U251 CNS
HT29 colon = system: HT29 colon
MDA-MB-435 = system: MDA-MB-435
RXF 393 renal = system: RXF 393 renal
BT-549 breast = system: BT-549 breast
NCI-H460 lung = system: NCI-H460 lung
SN12C renal = system: SN12C renal
HS 578T breast = system: HS 578T breast
HCT-116 colon = system: HCT-116 colon
LOX IMVI melanoma = system: LOX IMVI melanoma
MDA-N = system: MDA-N
SNB-75 CNS = system: SNB-75 CNS
PC-3 prostate = system: PC-3 prostate
NCI-H23 lung = system: NCI-H23 lung
HCC-2998 colon = system: HCC-2998 colon
CCRF-CEM leukemia = system: CCRF-CEM leukemia

SMILES: CC(=N\O)/C(C)=N/O.CC(=N\O)/C(C)=N/O.[Fe].[NH2-].c1c[nH]cn1
- GI50 (SNB-19 CNS): > 100 µM
- TGI (SNB-19 CNS): > 100 µM
- GI50 (MDA-MB-231 breast): > 100 µM
- TGI (MDA-MB-231 breast): > 100 µM
- GI50 (MOLT-4 leukemia): > 100 µM
- TGI (MOLT-4 leukemia): > 100 µM
- GI50 (SF-539 CNS): > 100 µM
- TGI (SF-539 CNS): > 100 µM
- GI50 (IGROV1 ovarian): > 100 µM
- TGI (IGROV1 ovarian): > 100 µM
- GI50 (NCI-H522 lung): > 100 µM
- TGI (NCI-H522 lung): > 100 µM
- GI50 (NCI/ADR-RES ovarian): > 100 µM
- TGI (NCI/ADR-RES ovarian): > 100 µM
- GI50 (RPMI-8226 leukemia): > 100 µM
- TGI (RPMI-8226 leukemia): > 100 µM
- GI50 (UO-31 renal): 1.43 µM
- TGI (UO-31 renal): 4.34 µM
- GI50 (SW-620 colon): > 100 µM
- TGI (SW-620 colon): > 100 µM
- GI50 (HL-60(TB) leukemia): > 100 µM
- TGI (HL-60(TB) leukemia): > 100 µM
- GI50 (NCI-H226 lung): > 100 µM
- TGI (NCI-H226 lung): > 100 µM
- GI50 (EKVX NSCLC): > 100 µM
- TGI (EKVX NSCLC): > 100 µM
- GI50 (COLO 205 colon): > 100 µM
- TGI (COLO 205 colon): > 100 µM
- GI50 (HCT-15 colon): > 100 µM
- TGI (HCT-15 colon): > 100 µM
- GI50 (MALME-3M melanoma): > 100 µM
- TGI (MALME-3M melanoma): > 100 µM
- GI50 (SF-268 CNS): > 100 µM
- TGI (SF-268 CNS): > 100 µM
- GI50 (HOP-92 NSCLC): 28.6 µM
- TGI (HOP-92 NSCLC): > 100 µM
- GI50 (SR leukemia): > 100 µM
- TGI (SR leukemia): > 100 µM
- GI50 (UACC-62 melanoma): > 100 µM
- TGI (UACC-62 melanoma): > 100 µM
- GI50 (KM12 colon): > 100 µM
- TGI (KM12 colon): > 100 µM
- GI50 (MCF7 breast): > 100 µM
- TGI (MCF7 breast): > 100 µM
- GI50 (ACHN renal): > 100 µM
- TGI (ACHN renal): > 100 µM
- GI50 (TK-10 renal): > 100 µM
- TGI (TK-10 renal): > 100 µM
- GI50 (K-562 leukemia): > 100 µM
- TGI (K-562 leukemia): > 100 µM
- GI50 (A498 renal): > 100 µM
- TGI (A498 renal): > 100 µM
- GI50 (DU-145 prostate): > 100 µM
- TGI (DU-145 prostate): > 100 µM
- GI50 (HOP-62 NSCLC): > 100 µM
- TGI (HOP-62 NSCLC): > 100 µM
- GI50 (A549 NSCLC): > 100 µM
- TGI (A549 NSCLC): > 100 µM
- GI50 (OVCAR-4 ovarian): > 100 µM
- TGI (OVCAR-4 ovarian): > 100 µM
- GI50 (OVCAR-8 ovarian): > 100 µM
- TGI (OVCAR-8 ovarian): > 100 µM
- GI50 (SK-MEL-28 melanoma): > 100 µM
- TGI (SK-MEL-28 melanoma): > 100 µM
- GI50 (786-0 renal): > 100 µM
- TGI (786-0 renal): > 100 µM
- GI50 (SK-MEL-5 melanoma): > 100 µM
- TGI (SK-MEL-5 melanoma): > 100 µM
- GI50 (UACC-257 melanoma): > 100 µM
- TGI (UACC-257 melanoma): > 100 µM
- GI50 (CAKI-1 renal): > 100 µM
- TGI (CAKI-1 renal): > 100 µM
- GI50 (SF-295 CNS): > 100 µM
- TGI (SF-295 CNS): > 100 µM
- GI50 (SK-OV-3 ovarian): > 100 µM
- TGI (SK-OV-3 ovarian): > 100 µM
- GI50 (T-47D breast): > 100 µM
- TGI (T-47D breast): > 100 µM
- GI50 (M14 melanoma): > 100 µM
- TGI (M14 melanoma): > 100 µM
- GI50 (OVCAR-3 ovarian): > 100 µM
- TGI (OVCAR-3 ovarian): > 100 µM
- GI50 (OVCAR-5 ovarian): > 100 µM
- TGI (OVCAR-5 ovarian): > 100 µM
- GI50 (SK-MEL-2 melanoma): > 100 µM
- TGI (SK-MEL-2 melanoma): > 100 µM
- GI50 (U251 CNS): > 100 µM
- TGI (U251 CNS): > 100 µM
- GI50 (HT29 colon): > 100 µM
- TGI (HT29 colon): > 100 µM
- GI50 (MDA-MB-435): > 100 µM
- TGI (MDA-MB-435): > 100 µM
- GI50 (RXF 393 renal): > 100 µM
- TGI (RXF 393 renal): > 100 µM
- GI50 (BT-549 breast): > 100 µM
- TGI (BT-549 breast): > 100 µM
- GI50 (NCI-H460 lung): > 100 µM
- TGI (NCI-H460 lung): > 100 µM
- GI50 (SN12C renal): > 100 µM
- TGI (SN12C renal): > 100 µM
- GI50 (HS 578T breast): > 100 µM
- TGI (HS 578T breast): > 100 µM
- GI50 (HCT-116 colon): > 100 µM
- TGI (HCT-116 colon): > 100 µM
- GI50 (LOX IMVI melanoma): 3.17 µM
- TGI (LOX IMVI melanoma): 13.2 µM
- GI50 (MDA-N): > 100 µM
- TGI (MDA-N): > 100 µM
- GI50 (SNB-75 CNS): > 100 µM
- TGI (SNB-75 CNS): > 100 µM
- GI50 (PC-3 prostate): > 100 µM
- TGI (PC-3 prostate): > 100 µM

SMILES: COC(=O)C1=COC2OC3CC1C2C(C)O3 (centres undefined)
- TGI (SNB-19 CNS): > 100 µM
- TGI (MDA-MB-231 breast): > 100 µM
- TGI (MOLT-4 leukemia): > 100 µM
- TGI (SF-539 CNS): > 100 µM
- TGI (IGROV1 ovarian): > 100 µM
- TGI (NCI-H522 lung): > 100 µM
- TGI (NCI/ADR-RES ovarian): > 100 µM
- TGI (RPMI-8226 leukemia): > 100 µM
- TGI (NCI-H23 lung): > 100 µM
- TGI (UO-31 renal): > 100 µM
- TGI (SW-620 colon): > 100 µM
- TGI (HL-60(TB) leukemia): > 100 µM
- TGI (NCI-H226 lung): > 100 µM
- TGI (EKVX NSCLC): > 100 µM
- TGI (COLO 205 colon): > 100 µM
- TGI (HCT-15 colon): > 100 µM
- TGI (MALME-3M melanoma): > 100 µM
- TGI (SF-268 CNS): > 100 µM
- TGI (HOP-92 NSCLC): > 100 µM
- TGI (SR leukemia): > 100 µM
- TGI (UACC-62 melanoma): > 100 µM
- TGI (KM12 colon): > 100 µM
- TGI (MCF7 breast): > 100 µM
- TGI (ACHN renal): > 100 µM
- TGI (TK-10 renal): > 100 µM
- TGI (A498 renal): > 100 µM
- TGI (DU-145 prostate): > 100 µM
- TGI (HOP-62 NSCLC): > 100 µM
- TGI (A549 NSCLC): > 100 µM
- TGI (OVCAR-4 ovarian): > 100 µM
- TGI (OVCAR-8 ovarian): > 100 µM
- TGI (SK-MEL-28 melanoma): > 100 µM
- TGI (786-0 renal): > 100 µM
- TGI (SK-MEL-5 melanoma): > 100 µM
- TGI (UACC-257 melanoma): > 100 µM
- TGI (HCC-2998 colon): > 100 µM
- TGI (CAKI-1 renal): > 100 µM
- TGI (SF-295 CNS): > 100 µM
- TGI (SK-OV-3 ovarian): > 100 µM
- TGI (T-47D breast): > 100 µM
- TGI (M14 melanoma): > 100 µM
- TGI (OVCAR-3 ovarian): > 100 µM
- TGI (OVCAR-5 ovarian): > 100 µM
- TGI (SK-MEL-2 melanoma): > 100 µM
- TGI (U251 CNS): > 100 µM
- TGI (HT29 colon): > 100 µM
- TGI (MDA-MB-435): > 100 µM
- TGI (RXF 393 renal): > 100 µM
- TGI (BT-549 breast): > 100 µM
- TGI (NCI-H460 lung): > 100 µM
- TGI (SN12C renal): > 100 µM
- TGI (HS 578T breast): > 100 µM
- TGI (HCT-116 colon): > 100 µM
- TGI (CCRF-CEM leukemia): > 100 µM
- TGI (LOX IMVI melanoma): > 100 µM
- TGI (MDA-N): > 100 µM
- TGI (PC-3 prostate): > 100 µM
